Measured values as given in PubChem BioAssay (NCI).
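Values below derive from 48-hour exposures of cells grown in 96-well plates, with endpoints linearly interpolated between the two concentrations bracketing the appropriate inhibition level. Definition used: TGI = concentration required for complete inhibition of growth.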

What was measured:
Assay in all cases: growth of human tumour cells (NCI), 48 h
NCI-H522 lung = system: NCI-H522 lung
NCI-H460 lung = system: NCI-H460 lung
SK-OV-3 ovarian = system: SK-OV-3 ovarian
BT-549 breast = system: BT-549 breast
U251 CNS = system: U251 CNS
IGROV1 ovarian = system: IGROV1 ovarian
CAKI-1 renal = system: CAKI-1 renal
786-0 renal = system: 786-0 renal
SN12C renal = system: SN12C renal
NCI/ADR-RES ovarian = system: NCI/ADR-RES ovarian
NCI-H226 lung = system: NCI-H226 lung
A549 NSCLC = system: A549 NSCLC
COLO 205 colon = system: COLO 205 colon
MDA-MB-435 = system: MDA-MB-435
M14 melanoma = system: M14 melanoma
DU-145 prostate = system: DU-145 prostate
UACC-257 melanoma = system: UACC-257 melanoma
NCI-H23 lung = system: NCI-H23 lung
SF-268 CNS = system: SF-268 CNS
SK-MEL-28 melanoma = system: SK-MEL-28 melanoma
HT29 colon = system: HT29 colon
OVCAR-5 ovarian = system: OVCAR-5 ovarian
HCT-15 colon = system: HCT-15 colon
LOX IMVI melanoma = system: LOX IMVI melanoma
CCRF-CEM leukemia = system: CCRF-CEM leukemia
SF-295 CNS = system: SF-295 CNS
OVCAR-3 ovarian = system: OVCAR-3 ovarian
HL-60(TB) leukemia = system: HL-60(TB) leukemia
KM12 colon = system: KM12 colon
OVCAR-8 ovarian = system: OVCAR-8 ovarian
ACHN renal = system: ACHN renal
T-47D breast = system: T-47D breast
MOLT-4 leukemia = system: MOLT-4 leukemia
SR leukemia = system: SR leukemia
UACC-62 melanoma = system: UACC-62 melanoma
SK-MEL-5 melanoma = system: SK-MEL-5 melanoma
K-562 leukemia = system: K-562 leukemia
MDA-MB-231 breast = system: MDA-MB-231 breast
RXF 393 renal = system: RXF 393 renal
OVCAR-4 ovarian = system: OVCAR-4 ovarian
RPMI-8226 leukemia = system: RPMI-8226 leukemia
SNB-75 CNS = system: SNB-75 CNS
SF-539 CNS = system: SF-539 CNS
HOP-62 NSCLC = system: HOP-62 NSCLC
SW-620 colon = system: SW-620 colon
MCF7 breast = system: MCF7 breast
PC-3 prostate = system: PC-3 prostate
SK-MEL-2 melanoma = system: SK-MEL-2 melanoma
UO-31 renal = system: UO-31 renal
EKVX NSCLC = system: EKVX NSCLC
HOP-92 NSCLC = system: HOP-92 NSCLC
MALME-3M melanoma = system: MALME-3M melanoma
HCC-2998 colon = system: HCC-2998 colon
HCT-116 colon = system: HCT-116 colon
MDA-N = system: MDA-N
TK-10 renal = system: TK-10 renal
SNB-19 CNS = system: SNB-19 CNS
HS 578T breast = system: HS 578T breast
A498 renal = system: A498 renal

CC1=C(/C=C/C(C)=C/C=C/C(C)=C/C(=O)OCC2OC(n3cc(F)c(=O)[nH]c3=O)CC2OC(=O)/C=C(C)/C=C/C=C(C)/C=C/C2=C(C)CCCC2(C)C)C(C)(C)CCC1 (centres undefined)
TGI (NCI-H522 lung): 28.2 µM
TGI (NCI-H460 lung): > 26.7 µM
TGI (SK-OV-3 ovarian): > 100 µM
TGI (BT-549 breast): > 76.3 µM
TGI (U251 CNS): > 54.1 µM
TGI (IGROV1 ovarian): 20 µM
TGI (CAKI-1 renal): > 100 µM
TGI (786-0 renal): > 46.1 µM
TGI (SN12C renal): > 31.6 µM
TGI (NCI/ADR-RES ovarian): > 100 µM
TGI (NCI-H226 lung): > 69.3 µM
TGI (A549 NSCLC): > 48.5 µM
TGI (COLO 205 colon): > 60.1 µM
TGI (MDA-MB-435): > 65.8 µM
TGI (M14 melanoma): > 48.3 µM
TGI (DU-145 prostate): > 46.3 µM
TGI (UACC-257 melanoma): > 92.1 µM
TGI (NCI-H23 lung): > 90 µM
TGI (SF-268 CNS): > 85.3 µM
TGI (SK-MEL-28 melanoma): > 77.6 µM
TGI (HT29 colon): > 100 µM
TGI (OVCAR-5 ovarian): > 67.6 µM
TGI (HCT-15 colon): > 57.1 µM
TGI (LOX IMVI melanoma): 25.8 µM
TGI (CCRF-CEM leukemia): > 28.8 µM
TGI (SF-295 CNS): > 40.2 µM
TGI (OVCAR-3 ovarian): > 39.5 µM
TGI (HL-60(TB) leukemia): > 41.9 µM
TGI (KM12 colon): > 74.7 µM
TGI (OVCAR-8 ovarian): > 66.7 µM
TGI (ACHN renal): > 48.3 µM
TGI (T-47D breast): > 64.7 µM
TGI (MOLT-4 leukemia): > 100 µM
TGI (SR leukemia): > 59.6 µM
TGI (UACC-62 melanoma): > 23.8 µM
TGI (SK-MEL-5 melanoma): 19.8 µM
TGI (K-562 leukemia): > 72.5 µM
TGI (MDA-MB-231 breast): > 86.8 µM
TGI (RXF 393 renal): > 100 µM
TGI (OVCAR-4 ovarian): > 81.8 µM
TGI (RPMI-8226 leukemia): 42.6 µM
TGI (SNB-75 CNS): > 100 µM
TGI (SF-539 CNS): > 100 µM
TGI (HOP-62 NSCLC): > 27.9 µM
TGI (SW-620 colon): > 52.5 µM
TGI (MCF7 breast): 36.8 µM
TGI (PC-3 prostate): > 56.2 µM
TGI (SK-MEL-2 melanoma): > 100 µM
TGI (UO-31 renal): > 26.3 µM
TGI (EKVX NSCLC): > 100 µM
TGI (HOP-92 NSCLC): 37.1 µM
TGI (MALME-3M melanoma): > 100 µM
TGI (HCC-2998 colon): 15 µM
TGI (HCT-116 colon): 27.1 µM
TGI (MDA-N): > 48.4 µM
TGI (TK-10 renal): > 58.4 µM
TGI (SNB-19 CNS): > 100 µM
TGI (HS 578T breast): > 68.8 µM

COc1ccc2[nH]c(CCNC(=O)c3cc([N+](=O)[O-])cc([N+](=O)[O-])c3)cc2c1
TGI (NCI-H460 lung): > 100 µM
TGI (SK-OV-3 ovarian): > 100 µM
TGI (BT-549 breast): > 100 µM
TGI (U251 CNS): 78.1 µM
TGI (IGROV1 ovarian): > 100 µM
TGI (CAKI-1 renal): > 100 µM
TGI (786-0 renal): > 100 µM
TGI (SN12C renal): > 100 µM
TGI (NCI/ADR-RES ovarian): > 100 µM
TGI (NCI-H226 lung): > 100 µM
TGI (A549 NSCLC): > 100 µM
TGI (COLO 205 colon): > 100 µM
TGI (MDA-MB-435): > 100 µM
TGI (M14 melanoma): > 100 µM
TGI (DU-145 prostate): > 100 µM
TGI (UACC-257 melanoma): > 100 µM
TGI (NCI-H23 lung): > 100 µM
TGI (SF-268 CNS): > 100 µM
TGI (SK-MEL-28 melanoma): > 100 µM
TGI (HT29 colon): > 100 µM
TGI (HCT-15 colon): > 100 µM
TGI (LOX IMVI melanoma): > 100 µM
TGI (CCRF-CEM leukemia): > 100 µM
TGI (OVCAR-3 ovarian): > 100 µM
TGI (HL-60(TB) leukemia): > 100 µM
TGI (KM12 colon): > 100 µM
TGI (OVCAR-8 ovarian): > 100 µM
TGI (A498 renal): > 100 µM
TGI (T-47D breast): 90.6 µM
TGI (MOLT-4 leukemia): > 100 µM
TGI (SR leukemia): > 100 µM
TGI (UACC-62 melanoma): > 100 µM
TGI (SK-MEL-5 melanoma): > 100 µM
TGI (K-562 leukemia): > 100 µM
TGI (MDA-MB-231 breast): > 100 µM
TGI (RXF 393 renal): 56.9 µM
TGI (OVCAR-4 ovarian): > 100 µM
TGI (RPMI-8226 leukemia): > 100 µM
TGI (SNB-75 CNS): 46.2 µM
TGI (SF-539 CNS): > 100 µM
TGI (HOP-62 NSCLC): 60.6 µM
TGI (SW-620 colon): > 100 µM
TGI (MCF7 breast): > 100 µM
TGI (PC-3 prostate): > 100 µM
TGI (SK-MEL-2 melanoma): > 100 µM
TGI (UO-31 renal): > 100 µM
TGI (HOP-92 NSCLC): 93.8 µM
TGI (MALME-3M melanoma): > 100 µM
TGI (HCT-116 colon): > 100 µM
TGI (MDA-N): > 100 µM
TGI (TK-10 renal): > 100 µM
TGI (SNB-19 CNS): > 100 µM
TGI (HS 578T breast): > 100 µM

O=C1c2ccccc2-c2c1c1ccccc1c(=O)n2Cc1ccco1
TGI (NCI-H522 lung): > 100 µM
TGI (SK-OV-3 ovarian): > 100 µM
TGI (BT-549 breast): > 100 µM
TGI (U251 CNS): > 100 µM
TGI (IGROV1 ovarian): > 100 µM
TGI (CAKI-1 renal): > 100 µM
TGI (786-0 renal): > 100 µM
TGI (SN12C renal): > 100 µM
TGI (NCI/ADR-RES ovarian): > 100 µM
TGI (NCI-H226 lung): > 100 µM
TGI (A549 NSCLC): > 100 µM
TGI (COLO 205 colon): > 100 µM
TGI (MDA-MB-435): > 100 µM
TGI (M14 melanoma): > 100 µM
TGI (DU-145 prostate): > 100 µM
TGI (UACC-257 melanoma): > 100 µM
TGI (NCI-H23 lung): > 100 µM
TGI (SF-268 CNS): > 100 µM
TGI (SK-MEL-28 melanoma): > 100 µM
TGI (HT29 colon): > 100 µM
TGI (OVCAR-5 ovarian): > 100 µM
TGI (HCT-15 colon): > 100 µM
TGI (LOX IMVI melanoma): > 100 µM
TGI (CCRF-CEM leukemia): > 100 µM
TGI (SF-295 CNS): > 100 µM
TGI (OVCAR-3 ovarian): > 100 µM
TGI (HL-60(TB) leukemia): > 100 µM
TGI (KM12 colon): > 100 µM
TGI (OVCAR-8 ovarian): > 100 µM
TGI (A498 renal): > 100 µM
TGI (T-47D breast): > 100 µM
TGI (MOLT-4 leukemia): > 100 µM
TGI (SR leukemia): > 100 µM
TGI (UACC-62 melanoma): > 100 µM
TGI (SK-MEL-5 melanoma): > 100 µM
TGI (K-562 leukemia): > 100 µM
TGI (MDA-MB-231 breast): > 100 µM
TGI (RPMI-8226 leukemia): > 100 µM
TGI (SNB-75 CNS): > 100 µM
TGI (SF-539 CNS): > 100 µM
TGI (HOP-62 NSCLC): > 100 µM
TGI (SW-620 colon): > 100 µM
TGI (MCF7 breast): > 100 µM
TGI (PC-3 prostate): > 100 µM
TGI (SK-MEL-2 melanoma): > 100 µM
TGI (UO-31 renal): > 100 µM
TGI (EKVX NSCLC): > 100 µM
TGI (HOP-92 NSCLC): > 100 µM
TGI (MALME-3M melanoma): > 100 µM
TGI (HCT-116 colon): > 100 µM
TGI (MDA-N): > 100 µM
TGI (TK-10 renal): > 100 µM
TGI (HS 578T breast): > 100 µM
